# Experimental data from ChEMBL document CHEMBL6182926, “Design, Synthesis, and Biological Activity Evaluation of Deuterated Diphenyl Azole Alcohol-Based CYP51 Inhibitors” (J Med Chem, 2025).
# Key:
# [1] = Selectivity ratio, ratio of IC50 for cytotoxicity against human SH-SY5Y cells to MIC80 for antifungal activity against Candida tropicalis CGMCC 2.3739; type: toxicity, cell-based
# [2] = Subacute toxicity in ICR mouse assessed as change in body weight at 100 mg/kg, oral gavage for 14 consecutive days; type: organism-based; settings: in vivo, 336 h, time 14 day
# Cryptococcus neoformans [3] = assay: Antifungal activity against Cryptococcus neoformans CGMCC 2.3161 assessed as reduction in Eburicol at 0.0125 ug/ml measured after 18 hrs incubation by gas chromatography-mass spectrometry (GCMS) analysis; type: functional; set-up: scale not given: the % may be the effect or the level left; settings: dose 0.0125 µg/ml
# [4] = Cmax in Sprague-Dawley rat at 3 mg/kg, iv by LC-MS/MS analysis; type: ADME, organism-based; settings: in vivo
# Cryptococcus neoformans [5] = assay: Antifungal activity against Cryptococcus neoformans CGMCC 2.3161 assessed as reduction in Obtusifoliol at 0.125 ug/ml measured after 18 hrs incubation by gas chromatography-mass spectrometry (GCMS) analysis; type: functional; set-up: scale not given: the % may be the effect or the level left; settings: dose 0.125 µg/ml
# [6] = Cytotoxicity against human HUVEC cells measured after 72 hrs by MTT assay; type: toxicity, cell-based
# Cytochrome P450 2C9 = Cytochrome P450 2C9 (Homo sapiens, UniProt P11712); assay: Inhibition of CYP2C9 in human liver microsomes using diclofenac as substrate measured after 10 mins by LC/MS/MS analysis; type: ADME, Microsome
# Sequence of Cytochrome P450 2C9 (P11712 whole entry): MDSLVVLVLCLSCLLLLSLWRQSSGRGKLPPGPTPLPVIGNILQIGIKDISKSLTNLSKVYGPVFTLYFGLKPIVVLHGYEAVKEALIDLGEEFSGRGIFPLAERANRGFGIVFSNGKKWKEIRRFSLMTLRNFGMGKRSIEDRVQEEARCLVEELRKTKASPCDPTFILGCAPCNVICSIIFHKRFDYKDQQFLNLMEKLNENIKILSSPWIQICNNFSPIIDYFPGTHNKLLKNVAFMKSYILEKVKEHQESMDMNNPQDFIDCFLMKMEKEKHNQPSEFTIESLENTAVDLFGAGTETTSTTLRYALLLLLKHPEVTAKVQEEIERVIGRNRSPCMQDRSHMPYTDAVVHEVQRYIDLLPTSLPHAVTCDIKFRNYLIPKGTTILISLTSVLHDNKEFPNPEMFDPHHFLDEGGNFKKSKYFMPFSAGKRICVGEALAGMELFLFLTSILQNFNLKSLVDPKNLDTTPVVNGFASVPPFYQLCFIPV
# [7] = Selectivity ratio, ratio of IC50 for cytotoxicity against human SH-SY5Y cells to MIC80 for antifungal activity against Clinical isolate Candida glabrata; type: toxicity, cell-based
# Candida albicans [8] = assay: Antifungal activity against Candida albicans SC5314 assessed as reduction in other sterol at 0.05 ug/ml measured after 18 hrs incubation by gas chromatography-mass spectrometry (GCMS) analysis (reference value: 2.59%); type: functional; set-up: scale not given: the % may be the effect or the level left; settings: dose 0.05 µg/ml
# Pichia kudriavzevii [9] = assay: Fungicidal activity against Candida krusei AS 2.1045 assessed as concentration of colonies (< 5) measured after 48 hrs incubation; type: functional
# [10] = Subacute toxicity in ICR mouse assessed as structural alteration in kidney at 100 mg/kg, oral gavage for 14 consecutive days by hematoxylin-eosin (H/E) staining analysis; type: organism-based; settings: in vivo, 336 h, time 14 day
# [11] = Tmax in Sprague-Dawley rat at 10 mg/kg, po by LC-MS/MS analysis; type: ADME, organism-based; settings: in vivo
# [12] = Toxicity in ICR mouse assessed as structural alteration in liver at 500 mg/kg, po single dose measured for 7 days by hematoxylin-eosin (H/E) staining analysis; type: organism-based; settings: in vivo, 168 h, time 7 day
# Cryptococcus neoformans [13] = assay: Antifungal activity against Cryptococcus neoformans CGMCC 2.3161 assessed as reduction in 14alpha-methylsterols at 0.0125 ug/ml measured after 18 hrs incubation by gas chromatography-mass spectrometry (GCMS) analysis (reference value: 2.32%); type: functional; set-up: scale not given: the % may be the effect or the level left; settings: dose 0.0125 µg/ml
# Cytochrome P450 3A4 [14] = target: T1, Cytochrome P450 3A4 (Homo sapiens, UniProt P08684); assay: Inhibition of CYP3A4 in human liver microsomes using testosterone as substrate measured after 10 mins by LC/MS/MS analysis; type: ADME, Microsome
# T1 sequence (P08684 whole entry): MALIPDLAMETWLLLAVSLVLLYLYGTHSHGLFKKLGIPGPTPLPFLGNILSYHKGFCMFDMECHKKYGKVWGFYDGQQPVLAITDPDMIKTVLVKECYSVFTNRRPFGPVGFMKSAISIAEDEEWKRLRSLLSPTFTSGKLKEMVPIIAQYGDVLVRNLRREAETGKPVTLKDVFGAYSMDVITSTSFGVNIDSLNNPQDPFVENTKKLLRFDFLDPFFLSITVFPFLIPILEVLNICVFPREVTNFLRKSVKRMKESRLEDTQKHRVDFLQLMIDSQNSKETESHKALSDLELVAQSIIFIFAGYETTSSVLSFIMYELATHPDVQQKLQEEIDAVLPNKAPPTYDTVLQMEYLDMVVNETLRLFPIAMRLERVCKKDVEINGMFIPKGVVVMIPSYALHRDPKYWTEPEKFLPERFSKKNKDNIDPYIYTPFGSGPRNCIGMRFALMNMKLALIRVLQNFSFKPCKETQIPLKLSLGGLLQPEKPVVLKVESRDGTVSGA
# [15] = Half life in Sprague-Dawley rat at 3 mg/kg, iv by LC-MS/MS analysis; type: ADME, organism-based; settings: in vivo
# Candida albicans [16] = assay: Antifungal activity against Candida albicans SC5314 assessed as reduction in Lanosterol at 0.05 ug/ml measured after 18 hrs incubation by gas chromatography-mass spectrometry (GCMS) analysis; type: functional; set-up: scale not given: the % may be the effect or the level left; settings: dose 0.05 µg/ml
# [17] = (§1) Selectivity ratio, ratio of IC50 for cytotoxicity against human SH-SY5Y cells to MIC80 for antifungal activity against Candida albicans CPCC 400616; type: toxicity, cell-based
# Cytochrome P450 3A4 [18] = target: T1, Cytochrome P450 3A4; assay: Inhibition of CYP3A4 in human liver microsomes using midazolam as substrate measured after 10 mins by LC/MS/MS analysis; type: ADME, Microsome
# Nakaseomyces glabratus [19] = assay: Fungicidal activity against Clinical isolate Candida glabrata assessed as concentration of colonies (< 5) measured after 48 hrs incubation; type: functional
# Candida albicans [20] = assay: Antifungal activity against Candida albicans SC5314 assessed as reduction in 14alpha-methylsterols at 0.05 ug/ml measured after 18 hrs incubation by gas chromatography-mass spectrometry (GCMS) analysis (reference value: 0.69%); type: functional; set-up: scale not given: the % may be the effect or the level left; settings: dose 0.05 µg/ml
# Cytochrome P450 2C19 = Cytochrome P450 2C19 (Homo sapiens, UniProt P33261); assay: Inhibition of CYP2C19 in human liver microsomes using S-mephenytoin as substrate measured after 10 mins by LC/MS/MS analysis; type: ADME, Microsome
# Sequence of Cytochrome P450 2C19 (P33261 whole entry): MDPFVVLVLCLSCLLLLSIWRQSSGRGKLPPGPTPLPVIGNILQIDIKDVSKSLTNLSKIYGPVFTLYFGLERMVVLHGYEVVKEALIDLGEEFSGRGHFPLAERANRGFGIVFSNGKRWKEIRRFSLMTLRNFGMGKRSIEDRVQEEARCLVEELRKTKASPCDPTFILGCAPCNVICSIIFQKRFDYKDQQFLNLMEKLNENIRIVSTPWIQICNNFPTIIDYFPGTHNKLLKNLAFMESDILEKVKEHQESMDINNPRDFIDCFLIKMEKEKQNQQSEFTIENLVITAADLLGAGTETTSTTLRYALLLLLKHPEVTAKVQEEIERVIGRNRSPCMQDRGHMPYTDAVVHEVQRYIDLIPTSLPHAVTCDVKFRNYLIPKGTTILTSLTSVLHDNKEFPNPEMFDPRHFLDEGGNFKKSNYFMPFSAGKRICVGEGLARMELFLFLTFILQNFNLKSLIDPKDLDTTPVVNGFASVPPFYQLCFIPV
# [21] = Toxicity in ICR mouse assessed as change in body weight at 500 mg/kg, po single dose measured for 7 days; type: organism-based; settings: in vivo, 168 h, time 7 day
# Nakaseomyces glabratus [22] = assay: Inhibition of biofilm formation in clinical isolate Candida glabrata assessed as inhibition of metabolic activity of biofilm measured after 24 hrs by XTT assay; type: functional
# Candida tropicalis = assay: Antifungal activity against Candida tropicalis CGMCC 2.3739 assessed as inhibition of visible growth; type: functional
# Aspergillus fumigatus = assay: Antifungal activity against Aspergillus fumigatus CGMCC 3.7795 assessed as inhibition of visible growth; type: functional
# [23] = as §1; type: toxicity, cell-based; remark: listed apart in the source
# Cryptococcus neoformans [24] = assay: Antifungal activity against Cryptococcus neoformans CGMCC 2.3161 assessed as reduction in ergosterol at 0.0125 ug/ml measured after 18 hrs incubation by gas chromatography-mass spectrometry (GCMS) analysis (reference value: 94.48%); type: functional; set-up: scale not given: the % may be the effect or the level left; settings: dose 0.0125 µg/ml
# [25] = Selectivity ratio, ratio of IC50 for cytotoxicity against human SH-SY5Y cells to MIC80 for antifungal activity against Candida parapsilosis GIM 2.190; type: toxicity, cell-based
# Nakaseomyces glabratus [26] = assay: Antifungal activity against Clinical isolate Candida glabrata assessed as inhibition of visible growth; type: functional
# Candida parapsilosis = assay: Antifungal activity against Candida parapsilosis GIM 2.190 assessed as inhibition of visible growth; type: functional; settings: Lodderomyces parapsilosis
# [27] = MRT (0 to infinity) in Sprague-Dawley rat at 10 mg/kg, po by LC-MS/MS analysis; type: ADME, organism-based; settings: in vivo
# [28] = Oral bioavailability in Sprague-Dawley rat at 10 mg/kg by LC-MS/MS analysis; type: ADME, organism-based; settings: in vivo
# [29] = Cmax in Sprague-Dawley rat at 10 mg/kg, po by LC-MS/MS analysis; type: ADME, organism-based; settings: in vivo
# [30] = Cytotoxicity against human SH-SY5Y cells measured after 72 hrs by MTT assay; type: toxicity, cell-based
# Cryptococcus neoformans [31] = assay: Fungicidal activity against Cryptococcus neoformans CGMCC 2.3161 assessed as concentration of colonies (< 5) measured after 48 hrs incubation; type: functional
# [32] = Metabolic stability in human liver microsomes assessed as half life by LC-MS/MS analysis; type: ADME, Microsome; settings: liver microsomes
# Cryptococcus neoformans [33] = assay: Antifungal activity against Cryptococcus neoformans CGMCC 2.3161 assessed as reduction in Lanosterol at 0.0125 ug/ml measured after 18 hrs incubation by gas chromatography-mass spectrometry (GCMS) analysis; type: functional; set-up: scale not given: the % may be the effect or the level left; settings: dose 0.0125 µg/ml
# [34] = Toxicity in ICR mouse assessed as mortality at 500 mg/kg, po single dose measured for 7 days; type: organism-based; settings: in vivo, 168 h, time 7 day
# Pichia kudriavzevii [35] = assay: Antifungal activity against Candida krusei AS 2.1045 assessed as inhibition of visible growth; type: functional
# Cryptococcus neoformans [36] = assay: Antifungal activity against Cryptococcus neoformans CGMCC 2.3161 assessed as reduction in other sterol at 0.0125 ug/ml measured after 18 hrs incubation by gas chromatography-mass spectrometry (GCMS) analysis (reference value: 2.20%); type: functional; set-up: scale not given: the % may be the effect or the level left; settings: dose 0.0125 µg/ml
structure (smiles),measurement,setting,value
[2H]C([2H])([2H])N(Cc1ccc(-c2ccc(OC(F)(F)F)cc2)cc1)[C@H](C)[C@](O)(Cn1cncn1)c1ccc(F)cc1F,selectivity ratio,[1],> 100
same,Activity,[2],Non-toxic
same,Activity,Cryptococcus neoformans [3],11.59%
same,Cmax,[4],2290 ng/mL
same,Activity,Cryptococcus neoformans [5],26.05%
same,IC50 at 72 h,[6],23.5 µM
same,IC50,Cytochrome P450 2C9,1.76 µM
same,selectivity ratio,[7],> 100
same,Activity,Candida albicans [8],3.13%
same,MFC,Pichia kudriavzevii [9],0.125 µg/mL
same,Activity,[10],Non-toxic
same,Tmax,[11],2.67 h
same,Activity,[12],Non-toxic
same,Activity,Cryptococcus neoformans [13],3.13%
same,IC50,Cytochrome P450 3A4 [14],5.11 µM
same,t1/2,[15],6.79 h
same,Activity,Candida albicans [16],21.92%
same,selectivity ratio,[17],> 100
same,IC50,Cytochrome P450 3A4 [18],6.62 µM
same,MFC,Nakaseomyces glabratus [19],0.5 µg/mL
same,Activity,Candida albicans [20],7.73%
same,IC50,Cytochrome P450 2C19,1.71 µM
same,Activity,[21],Non-toxic
same,MIC50,Nakaseomyces glabratus [22],0.062 µg/mL
same,MIC80,Candida tropicalis,0.006 µg/mL
same,MIC80,Aspergillus fumigatus,0.025 µg/mL
same,selectivity ratio,[23],> 100
same,Activity,Cryptococcus neoformans [24],62.56%
same,selectivity ratio,[25],> 100
same,MIC80,Nakaseomyces glabratus [26],0.012 µg/mL
same,MIC80,Candida parapsilosis,0.006 µg/mL
same,MRT inf,[27],6.18 h
same,bioavailability,[28],63.4%
same,Cmax,[29],601 ng/mL
same,IC50 at 72 h,[30],25.2 µM
same,MFC,Cryptococcus neoformans [31],0.062 µg/mL
same,half-life,[32],0.67 h
same,Activity,Cryptococcus neoformans [33],8.58%
same,Activity,[34],Non-toxic
same,MIC80,Pichia kudriavzevii [35],0.012 µg/mL
same,Activity,Cryptococcus neoformans [36],8.38%
